Measured values from article PMC10447463, “Data-mining unveils structure–property–activity correlation of viral infectivity enhancing self-assembling peptides” (Nature Communications, 2023).
Several values for one entry are separate records, joined by “and”; a condition that tells them apart may be missing. Equal values may be shown once. Read-outs that look alike come from different tables or passages of the source.

Key:
[1] = Zeta-potential measurement; assay type: physicochemical; conditions: for Zeta-pot. / mV: zeta potential of peptide, Fig S15 source data
Method in brief: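 Readout: zeta potential (mV) derived by Smoluchowski from measured electrophoretic mobility. Preformed aggregates (1 mg/mL peptide, PBS pH 7.4, RT for 1 d) were diluted into dilute KCl electrolyte (1 mM) shortly before analysis.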

[2] = β-sheet content by ATR-FT-IR; assay type: physicochemical
Method in brief: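 Fluorescence at 470 nm (365 nm excitation) was read 20 min after adding fluorescamine to DMSO-dissolved filtrate and unfiltered PNF, then CR computed as 100 − 100 × filtrate/original. Secondary structure came from ATR FT-IR spectra of lyophilized PNF powder.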

[3] = assay type: physicochemical; set-up: key to Fibril / Fibril Formation / TEM 2cat / Fibril: 1 = fibrils present; 0 non-fibrillar structures; conditions: for TEM 2cat: fibril category by TEM
[4] = test system: HIV-1 infection of TZM-bl cells; experiment: HIV-1 infectivity enhancement assay, β-galactosidase luminescence; assay type: cell-based; conditions: for Log10 Inf. rel. to EF-C: log10 of HIV-1 infection of TZM-bl cells relative to EF-C, Fig S15 source data; for Log10 Infection Rel EF-C: HIV-1 infection of TZM-bl cells
[5] = Feb2021, Log10 of infectivity relative to EF-C
[6] = Feb2021, n-fold enhancement relative to EF-C
[7] = Feb2021, n-fold infectivity relative to EF-C
[8] = infectivity class (low / medium / high) of each library peptide, main list in c1-c6, same classes repeated in sub-lists of sequences containing the hydrophobicity/charge patterns P+,H0,P+,H0,P0,H0,P0, P+,H0,P0,H0,P0,H0,P0, P+,H0,P0,H0

In the case of QCKIKIQINMWQ [EF-C opt], the “Zeta category ( +1 = if > 4 mV;-1 = if < -4 mV; 0 = -4mV to 4 mV)” value (“Zeta category” for short) [1] is reported as 1 (+1 = if > 4 mV), the “Zeta category” value ([1]; category from zeta potential) is reported as 1 (+1 = if > 4 mV) and the “Zeta Pot. / mV” value ([1]; mean, Std Zeta in next column) is reported as 11.73 mV. The “Zeta Pot. / mV” value ([1]; mean, Std in separate column) was 11.73 mV, the “Zeta-pot. / mV” value [1] was 11.73 mV and the “FTIR ß-sheet content/ %” value [2] was 48.38%. The “FTIR ß-sheet content/ %” value ([2]; ATR-FT-IR) was 48% and 48.38%, the “TEM: 1= fibrils, 0= aggregates (micelle), 0.5 = aggregates and fibrils, -1 = nothing obersved, STD prep” value [3] was 1 and the “n-fold to virus (Feb2021)” value ([4]; Feb2021, 1.3 µM value relative to virus only (0 µM)) was 43.54. The “Log10 of Rel to EFC (Feb2021)” value [4, 5] was 0.01546, the “Rel-to EFC (Feb-2021)” value [4, 6] was 1.036 and the “Rel-to EFC (Feb-2021)” value [4, 7] was 1.036. The “Absolute Infectivity / RLU /s (Feb2021)” value ([4]; Feb2021, unrounded values of the 1.3 µM column) was 21221.11111 RLU /s, the “n-fold to virus (Feb2021)” value ([4]; Feb2021 run, infectivity n-fold relative to virus alone) was 43.54 and the “Log10 of Rel to EFC (Feb2021)” value ([4]; Feb2021 run, log10 of infectivity relative to EF-C) was 0.01546. For the same sequence, the “Rel-to EFC (Feb-2021)” value ([4]; Feb2021 run, n-fold infectivity relative to EF-C) was 1.036, the “Rel-to EFC” value ([4]; Fig S8 panels B, D, infectivity enhancement relative to EF-C) was 1.036 and the n-fold to virus ([4]; Fig S8 panels B, D, infectivity n-fold relative to virus alone) was 43.54. The infectivity [4, 8] was “high”, the infectivity ([4]; infectivity class (low / medium / high) of the peptide in the sequence-pattern analysis, Fig. S22-A4, class limits not given) was “high” and the “Log10 Inf. rel. to EF-C” value ([4]; asymmetric std dev errors) was 0.01546.
With RGDCKFKFQF [TM64/ CN15] the “Zeta Pot. / mV” value [1] was 13.87 mV, the “Zeta category” value [1] was 1 (+1 = if > 4 mV) and the “Zeta category” value ([1]; category from zeta potential) was 1 (+1 = if > 4 mV). For the same sequence, the “Zeta Pot. / mV” value ([1]; mean, Std Zeta in next column) was 13.87 mV, the “Zeta-pot. / mV” value [1] was 13.87 mV and the “FTIR ß-sheet content/ %” value ([2]; ATR-FT-IR) was 47% and 46.68%. For the same sequence, the “TEM: 1= fibrils, 0= aggregates (micelle), 0.5 = aggregates and fibrils, -1 = nothing obersved, STD prep” value [3] was 1, the “Log10 of Rel to EFC (Feb2021)” value [4, 5] was -0.8186 and the “Absolute Infectivity / RLU /s (Feb2021)” value ([4]; Feb2021, figures match the 1.3 µM column) was 4637 RLU /s. For the same sequence, the “n-fold to virus (Feb2021)” value ([4]; Feb2021, infectivity relative to virus only) was 6.381, the “Rel-to EFC (Feb-2021)” value [4, 6] was 0.1519 and the “Rel-to EFC (Feb-2021)” value [4, 7] was 0.1519. The infectivity [4, 8] was “medium” and the “Log10 Inf. rel. to EF-C” value ([4]; asymmetric std dev errors) was -0.8186.
In the case of RGDKIKIQI, the Zeta-Pot. ([1]; zeta potential of peptide assemblies) is reported as -0.899, the “Zeta-Potential / mV” value ([1]; zeta-potential of peptide, source data of Figure 2C) is reported as 2.829 mV and the “Zeta-Potential / mV” value ([1]; zeta-potential of the peptide assemblies, mean, Figure 3A source data) is reported as -0.9 mV. For the same sequence, the “b -sheet / %” value ([2]; Fig. S7 panel A, β-sheet content by ATR-FT-IR) was 40.49%, the “TEM 2cat” value ([3]; Fig S10 panel D) was 1 and the “TEM 2cat” value ([3]; FigS12 panel A) was 1. The Fibril ([3]; FigS12 panel B, TEM) was 1, the “Fibril / Fibril Formation” value ([3]; TEM, 1 mg/mL, uranyl acetate stain, qualitative) was 1 and the Fibril ([3]; TEM, 1 = fibrils present, 0 = non-fibrillar) was 1. For the same sequence, the Fibril ([3]; TEM, 1 = fibrils present, 0 = non-fibrillar structures) was 1, the Rel-EFC ([4]; 1.3 µM peptide, infection relative to EF-C (QCKIKQIINMWQ = 1)) was 0,02 and the “Log10 Infection Rel EFC” value ([4]; 1.3 µM peptide, log10 of infection relative to EF-C) was -1,81. The “Log Infectivity” value ([4]; Fig. S7 panel A (plotted against β-sheet content), Log10 infection relative to EF-C, TZM-bl cells, asymmetric std dev errors) was -1.805, the “Log10 Infection Rel EF-C” value ([4]; Log10 of infection rate relative to EF-C, Figure 3A source data) was -1.81 and the “Log10 Infection Rel EF-C” value ([4]; infection rate relative to EF-C, log10, data of Figure 2D) was -1.805. For the same sequence, the “Log10 Infection Rel EF-C” value ([4]; infection rate relative to EF-C, log10, source data of Figure 2C) was -1.805.
